Measurements: the supplement of paper PMC10307832

Experiments:
Assay in all cases: relative viability (nuclei count vs DMSO), 5 days (fraction); higher = more cells survive
MLN4924 + Pemetrexed = compound: NS(=O)(=O)OC[C@@H]1C[C@@H](n2ccc3c(N[C@H]4CCc5ccccc54)ncnc32)C[C@@H]1O [MLN4924] + Nc1nc2[nH]cc(CCc3ccc(C(=O)N[C@@H](CCC(=O)O)C(=O)O)cc3)c2c(=O)[nH]1 [Pemetrexed] (partner 0.2 µM)
Procedure, shortened: (§1)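 Lung cancer cell lines were pin-tool dosed in 1536-well plates on the day after seeding, with either a lone drug or a fixed anchor-drug dose plus five library-drug doses (not always all listed) in √10 steps. Nuclei were counted on 4× images after 5 days. Relative viability is the ratio of treated-well to vehicle-well nuclei counts, with each value a median of duplicate plates.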

Carboplatin + Navitoclax = compound: C1CC(C1)(C(=O)O)C(=O)O.[NH2-].[NH2-].[Pt+2] [Carboplatin] + CC1(C)CCC(c2ccc(Cl)cc2)=C(CN2CCN(c3ccc(C(=O)NS(=O)(=O)c4ccc(N[C@H](CCN5CCOCC5)CSc5ccccc5)c(S(=O)(=O)C(F)(F)F)c4)cc3)CC2)C1 [Navitoclax] (partner 0.5 µM)
Procedure, shortened: as §1

GSK126 + Navitoclax = compound: CC[C@H](C)N1C=C(C2=C(C=C(C=C21)C3=CN=C(C=C3)N4CCNCC4)C(=O)NCC5=C(C=C(NC5=O)C)C)C [GSK126] + CC1(C)CCC(c2ccc(Cl)cc2)=C(CN2CCN(c3ccc(C(=O)NS(=O)(=O)c4ccc(N[C@H](CCN5CCOCC5)CSc5ccccc5)c(S(=O)(=O)C(F)(F)F)c4)cc3)CC2)C1 [Navitoclax] (partner 0.5 µM)
Procedure, shortened: as §1

GSK126 + Palbociclib = compound: CC[C@H](C)N1C=C(C2=C(C=C(C=C21)C3=CN=C(C=C3)N4CCNCC4)C(=O)NCC5=C(C=C(NC5=O)C)C)C [GSK126] + CC(=O)c1c(C)c2cnc(Nc3ccc(N4CCNCC4)cn3)nc2n(C2CCCC2)c1=O [Palbociclib] (partner 0.5 µM)
Procedure, shortened: as §1

Cell Line	relative viability (MLN4924 + Pemetrexed; first compound 0.04 µM)	relative viability (MLN4924 + Pemetrexed; first compound 0.1265 µM)	relative viability (MLN4924 + Pemetrexed; first compound 0.4 µM)	relative viability (MLN4924 + Pemetrexed; first compound 1.265 µM)	relative viability (MLN4924 + Pemetrexed; first compound 4 µM)	relative viability (Carboplatin + Navitoclax; first compound 0.08 µM)	relative viability (Carboplatin + Navitoclax; first compound 0.253 µM)	relative viability (Carboplatin + Navitoclax; first compound 0.8 µM)	relative viability (Carboplatin + Navitoclax; first compound 2.53 µM)	relative viability (Carboplatin + Navitoclax; first compound 8 µM)	relative viability (GSK126 + Navitoclax; first compound 0.08 µM)	relative viability (GSK126 + Navitoclax; first compound 0.253 µM)	relative viability (GSK126 + Navitoclax; first compound 0.8 µM)	relative viability (GSK126 + Navitoclax; first compound 2.53 µM)	relative viability (GSK126 + Navitoclax; first compound 8 µM)	relative viability (GSK126 + Palbociclib; first compound 0.08 µM)	relative viability (GSK126 + Palbociclib; first compound 0.253 µM)	relative viability (GSK126 + Palbociclib; first compound 0.8 µM)	relative viability (GSK126 + Palbociclib; first compound 2.53 µM)	relative viability (GSK126 + Palbociclib; first compound 8 µM)
LU99A	0.185	0.175	0.18	0.189	0.129	0.842	0.881	0.829	0.774	0.581	0.926	0.812	0.705	0.777	0.766	0.444	0.439	0.379	0.39	0.451
NCI-H1299						1.09	1.02	1.02	1.01	0.964	1.05	1.07	1.01	1.03	1.02					
NCI-H1355	1.01	1.07	0.879	0.547	0.256	1.02	1.01	0.853	0.912	0.921	0.985	1.07	0.911	1.01	1.02	0.446	0.365	0.417	0.405	0.413
HCC-15	0.205	0.158	0.0806	0.0787	0.0939	0.73	0.702	0.718	0.699	0.604	0.719	0.662	0.658	0.676	0.623	0.759	0.855	0.692	0.573	0.671
LXF-289	0.814	0.77	0.567	0.177	0.116	0.933	0.982	0.932	0.903	0.927	0.979	0.912	0.935	0.986	0.981	0.586	0.625	0.588	0.602	0.629
201T	0.291	0.312	0.315	0.287	0.257	1.2	1.18	1.12	1.14	1.18	1.18	1.27	1.27	1.26	1.32	0.442	0.356	0.378	0.387	0.382
HOP-62	0.235	0.175	0.0617	0.0458	0.0811	1.04	1.08	0.789	0.902	0.748	1.01	1.06	1.06	0.916	0.979	0.501	0.372	0.468	0.398	0.444
NCI-H1703						1.31	1.2	1.11	1.07	1.49	1.49	0.942	1.02	0.898	0.748					
NCI-H1975	0.284	0.331	0.278	0.272	0.209	1.19	1.26	1.01	1.09	1.18	1.04	1.18	0.94	0.998	0.892	0.633	0.591	0.636	0.561	0.627
NCI-H2023	0.219	0.234	0.123	0.0635	0.09	1.02	0.96	0.883	0.76	0.312	1.04	0.984	1.04	1.09	0.995	0.505	0.442	0.349	0.442	0.399
EBC-1						0.479	0.364	0.443	0.401	0.33	0.449	0.407	0.365	0.477	0.362					
COR-L23	0.193	0.199	0.168	0.163	0.132	0.992	0.883	0.838	0.84	0.443	1.17	1.01	0.834	0.95	0.968	0.307	0.265	0.259	0.279	0.352
NCI-H1793	0.892	0.698	0.914	0.433	0.303	0.496	0.585	0.388	0.453	0.435	0.503	0.491	0.379	0.369	0.416	0.351	0.318	0.299	0.351	0.273
A549						1.25	1.29	1.18	0.985	0.535	1.37	1.28	1.23	1.24	1.13					
CAL-12T	1.06	1.1	0.67	0.636	0.224	1.2	1.21	1.23	1.26	1.09	1.27	1.27	0.967	1.1	1.33	0.491	0.458	0.515	0.416	0.41
NCI-H1993	0.592	0.471	0.421	0.441	0.382	0.981	0.867	0.855	0.755	0.861	0.981	0.931	0.754	1.06	0.892	0.751	0.605	0.606	0.797	0.632
ChaGo-K-1	0.272	0.258	0.251	0.179	0.181	1.17	1.01	0.944	0.798	0.53	1.19	0.925	1.03	1.27	1.09	0.93	0.905	0.914	1.04	0.914
